Reference: patent US10562842B2, “Use of polyaminoisoprenyl derivatives in antibiotic or antiseptic treatment” (UNIVERSITE D'AIX-MARSEILLE, priority 2011, dated 2020)
Values after ≈ are worked out from the molar mass of the structure shown.

Columns and labels:
[1] = test system: CHO cells; assay: Toxicity on CHO cultured cells; type: cell-based; conditions: Cricetulus griseus; killing of 50% of the CHO cells after 24 hours of incubation
Procedure: The toxicity of each compound was determined on CHO cultured cells. Incubation of CHO cells was performed with serial dilution of compounds. The compounds are either solubilized in DMSO or in PBS. The IC50 corresponds to the concentration of compounds leading to a killing of 50% of the CHO cells after 24 hours of incubation.

[2] = test system: Enterobacter aerogenes MDR Ea289; assay: MIC of antibiotics ± test compound (MIC ratio), micro-broth dilution; type: cell-based; conditions: for MIC ratio Chloramphenicol E. aerogenes Ea289 / MIC ratio Doxycycline E. aerogenes Ea289 / MIC ratio Nalidixic acid E. aerogenes Ea289: Example 4
Procedure: The process consists of treating the MDR bacteria with the compounds of the invention in the presence of antibiotics.
(§1) Susceptibilities to antibiotics and compounds were determined in microplates by broth dilution method, as previously described. Minimal Inhibitory Concentrations (MICs) were determined with an inoculum of 10^6 CFU in 200 μL of MH broth containing two-fold serial dilutions of each drug. […] All MIC determinations were repeated at least three times in independent experiments.
(§2) The MICs of chloramphenicol±test compounds (MIC/4) were determined by the micro-broth dilution method (9). All MIC determinations were repeated at least three times in independent experiments. The MIC ratio corresponds to the ratio of the MIC of an antibiotic alone to the MIC of the same antibiotic in the presence of the tested compound (at MIC/4).
The compounds listed in Table 2 were tested for their ability to decrease the chloramphenicol MIC of Ea289, an Enterobacter aerogenes MDR strain (1). Each compound was first tested at MIC/4. […] All MIC determinations were repeated at least three times in independent experiments.
(§3) For reminder, the MIC ratio corresponds to the ratio of the MIC of the assessed antibiotic alone to the MIC of the same antibiotic in the presence of the tested compound (at MIC/4).

[3] = test system: Ea289ΔacrB (Ea294); assay: as above; type: cell-based, Enterobacter aerogenes; conditions: compound at MIC/4; for MIC ratio Chloramphenicol E. aerogenes Ea294 / MIC ratio Doxycycline E. aerogenes Ea294 / MIC ratio Nalidixic acid E. aerogenes Ea294: Example 4
Procedure: The Enterobacter aerogenes Ea289 strain is a Kans derivative of the MDR clinical isolate Ea27, the acrB mutant, EaEP294, was constructed from Ea289. Multidrug-resistant Salmonella enterica serovar Typhimurium DT104 strains (BN10055) was isolated from cattle in France, the isogenic acrB derivative mutant, BN10055ΔacrB, was constructed from BN10055. Strains were maintained at −80° C. in 25% (v/v) glycerol for cryoprotection. Bacteria were routinely grown in Mueller-Hinton (MH) broth at 37° C.
as §1
[…] All MIC determinations were repeated at least three times in independent experiments. The MIC ratio corresponds to the ratio of the MIC of an antibiotic alone to the MIC of the same antibiotic in the presence of the tested compound (at MIC/4).
as §3

[4] = test system: PA124; assay: as above; type: cell-based, Pseudomonas aeruginosa; conditions: compound at MIC/4
Procedure: as §1, §2, §3

[5] = test system: PAO1; assay: as above; type: cell-based, Pseudomonas aeruginosa; conditions: compound at MIC/4
Procedure: as §1, §2, §3

[6] = test system: Ea289; assay: MIC by broth dilution (intrinsic MIC); type: cell-based, Enterobacter aerogenes; conditions: Klebsiella aerogenes; Enterobacter Ea289
Procedure: as §1

[7] = test system: strain IV2571418 - Escherichia coli pig (resistant); assay: MIC of antibiotics in the presence and absence of test compound, veterinary strains; type: cell-based; design: MIC for strain IV2571418, Doxycycline in the presence of test compound: unit not given beside the values; conditions: compound at the Concentration (μM) (4-50)
Procedure: For each strain and each antibiotic, the MICs were determined in the presence and in the absence of one test compound.

[8] = test system: CHO-K1 cells; type: cell-based; conditions: for proliferation index, all the tested concentrations: Chinese hamster, 3 h
Procedure: Genotoxicity of compounds 11 and 14 was assessed by micronucleus test. The micronucleus test was performed on CHO-K1 cells with and without metabolic activation. Metabolic activation is obtained by adding in the medium S9 mix. S9 mix contains NADP, G6P and S9 fraction which is a crude preparation of enzymes obtained from the homogenized liver of rats. Briefly, CHO-K1 cells were cultured in Mc Coy's medium 5A and then transferred in the wells of Lab-Tek chamber slides at a concentration of 100 000 cells/ml. The cells were incubated during 24 h at 37° C. at CO2 (5%). The culture medium was replaced by Mc Coy's 5A medium comprising 10% per volume of S9 mix. The test compounds were added at increased concentrations. After being incubated during three hours at 37° C., the cells were rinsed with phosphate buffer (PBS) and then cultured in Mac Coy's 5A medium containing 3 μg/ml cytochalasine B. After an incubation of 21 hours at 37° C., the cells were rinsed, fixed with methanol and coloured with Giemsa 10% during 20 minutes. For each set of assays, the positive control was 0.05 μg/ml of mitomycine C or 5 μg/ml of benzo-a-pyrene. The negative control was culture medium containing 5% of PBS. The stained cells were then analysed by microscopy for the presence of micronuclei. The proliferation index was determined as follows: IP=(2×BIN+MON)/500. MON: number of mononucleated cells and BIN: number of binucleated cells.

[9] = test system: Enterobacter, Salmonella and Escherichia strains; assay: MIC ratio, several strains; type: cell-based
From the text: as §3

[10] = test system: Pseudomonas and Actinebacter strains; assay: MIC ratio, several strains; type: cell-based
From the text: as §3

[11] = chloramphenicol, compound at MIC/4, Set 2

Structure (SMILES) | MIC ratio (*) on Ea289 Chl [2, 11] | MIC ratio Chloramphenicol E. aerogenes Ea289 ([2]; compound at MIC/4) | MIC ratio Doxycycline E. aerogenes Ea289 ([2]; compound at MIC/4) | MIC ratio Nalidixic acid E. aerogenes Ea289 ([2]; compound at MIC/4) | MIC ratio Chloramphenicol E. aerogenes Ea294 [3] | MIC ratio Doxycycline E. aerogenes Ea294 [3] | MIC ratio Nalidixic acid E. aerogenes Ea294 [3] | MIC ratio Cefepime Pseudomonas aeruginosa PA124 [4] | MIC ratio Chloramphénicol Pseudomonas aeruginosa PA124 [4] | MIC ratio Doxycycline Pseudomonas aeruginosa PA124 [4] | MIC ratio Tetracycline Pseudomonas aeruginosa PA124 [4] | MIC ratio Cefepime Pseudomonas aeruginosa PAO1 [5] | MIC ratio Doxycycline Pseudomonas aeruginosa PAO1 [5] | MIC [6] | MIC for strain IV2571418, Doxycycline in the presence of test compound [7] | MIC for strain IV2571418, Tylosine in the presence of test compound [7] | genotoxicity in vitro (micronucleus test) [8] | proliferation index, all the tested concentrations [8] | further results
CC(C)=CCCC(C)=CCNCCCN(CCCN)CCCN (racemic) [Compound 11, {3-[Bis-(3-amino-propyl)-amino]-propyl}-(3,7-dimethyl-octa-2,6-dienyl)-amine] | 8 | 8 | 32 | 8 | 16 | 4 | 8 | 1 | 128 | >32 | 8 | 1 | >16 | 31 µM (≈ 10.1 µg/mL) | 2 | 4 | not genotoxic in vitro | higher than 50% | IC50 [1]: 0.282 mM; Effective concentration (mM) for a MIC ratio of chloramphenicol ≥ 8 on Ea289 ([2]; chloramphenicol): 0.0078 mM; efficient concentration, times lower than the control PAβN ([2]; chloramphenicol MIC ratio of 8 on Ea289): about 4.9 times; activity, effective concentration compared with PAβN to reach a MIC ratio of 8 ([2]; chloramphenicol on Ea289): strong activity; MIC ratio (*) on Ea289 Chl ([2]; chloramphenicol, compound at MIC/4, Set 1): 16; MIC ratio(*) on Ea289 Ery ([2]; erythromycin, compound at MIC/4, Set 1): 32; MIC ratio (*) on Ea289 Nal ([2]; nalidixic acid, compound at MIC/4, Set 1): 8; MIC ratio(*) on Ea289ΔacrB Chl ([3]; chloramphenicol, Set 1): 16; MIC ratio(*) on Ea289ΔacrB Ery ([3]; erythromycin, Set 1): 16; MIC ratio(*) on Ea289ΔacrB Nal ([3]; nalidixic acid, Set 1): 8; sensitivity for chloramphenicol, nalidixic acid, doxycycline and oxacillin ([9]; Enterobacter Salmonella and Escherichia strains): increased the sensitivity; sensitivity to tetracycline, Enterobacter, Salmonella and E. coli strains ([9]; tetracycline, data not shown): such an increase was not observed; sensitivity of strains to chloramphenicol ([10]; Pseudomonas and Actinebacter strains): greatly increased the sensitivity; sensitivity to tetracycline, Pseudomonas and Actinebacter strains ([10]; tetracycline): increased the sensitivity
CC(C)=CCC/C(C)=C/CC/C(C)=C/CNCCCN(C)CCCN [Compound 14, {3-[(3-Amino-propyl)-methyl-amino]-propyl}-((2E,6E)-3,7,11-trimethyl-dodeca-2,6,10-trienyl)-amine] | 8 | 8 | 64 | 32 | 2 | 4 | 4 | 1 | 128 | >32 | 8 | 1 | >16 | 31 µM (≈ 10.8 µg/mL) | 2 | 4 | not genotoxic in vitro | higher than 50% | –
